In the assay the target is T1, Integrin alpha-4 (Homo sapiens, UniProt P05556+P13612).
T1 sequence (P13612 whole entry): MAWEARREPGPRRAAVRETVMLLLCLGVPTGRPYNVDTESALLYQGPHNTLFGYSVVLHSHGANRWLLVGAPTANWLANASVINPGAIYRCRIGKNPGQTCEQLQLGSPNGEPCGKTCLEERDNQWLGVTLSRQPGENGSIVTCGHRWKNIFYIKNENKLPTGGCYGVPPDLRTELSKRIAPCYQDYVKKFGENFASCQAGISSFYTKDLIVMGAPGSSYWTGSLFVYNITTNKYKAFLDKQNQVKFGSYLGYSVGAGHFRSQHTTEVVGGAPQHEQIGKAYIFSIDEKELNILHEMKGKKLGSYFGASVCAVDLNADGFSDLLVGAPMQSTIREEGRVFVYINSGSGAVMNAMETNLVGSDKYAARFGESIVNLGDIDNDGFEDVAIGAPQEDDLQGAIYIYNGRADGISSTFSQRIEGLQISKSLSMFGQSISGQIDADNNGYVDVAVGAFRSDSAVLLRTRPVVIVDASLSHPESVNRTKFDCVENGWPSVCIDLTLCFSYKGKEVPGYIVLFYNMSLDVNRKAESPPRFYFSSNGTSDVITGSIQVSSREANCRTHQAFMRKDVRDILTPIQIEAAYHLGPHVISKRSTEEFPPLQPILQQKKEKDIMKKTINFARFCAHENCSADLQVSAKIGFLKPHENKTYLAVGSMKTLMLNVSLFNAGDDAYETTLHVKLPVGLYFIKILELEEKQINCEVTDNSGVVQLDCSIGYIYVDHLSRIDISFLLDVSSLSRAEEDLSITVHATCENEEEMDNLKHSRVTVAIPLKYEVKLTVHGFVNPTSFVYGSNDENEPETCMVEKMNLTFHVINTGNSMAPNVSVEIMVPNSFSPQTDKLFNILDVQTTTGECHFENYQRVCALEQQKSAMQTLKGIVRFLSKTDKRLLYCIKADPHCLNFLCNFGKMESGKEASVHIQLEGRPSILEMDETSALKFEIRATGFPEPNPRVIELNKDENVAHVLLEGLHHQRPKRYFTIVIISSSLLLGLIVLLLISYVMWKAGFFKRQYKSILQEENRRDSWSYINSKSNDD
Nature of the assay: inhibition of LDV ligand binding to VLA-4 – cell-based, LDV-FITC binding, flow cytometry, dose response (AID 702). (Flow cytometry measures light scatter and fluorescence of single cells or particles in a stream.)

This note sets out measurements from BindingDB's records for doi:10.7270/Q2H130FK (Nmmlsc, 2007).

Counter-ions that a name gives are not always drawn.

In general, EC50 refers to the concentration needed to bring the measured effect to its halfway point. A low value points to an effect from little substance. For the compound `O=c1c(CC[S+]([O-])c2ccccc2)c(O)n(-c2ccccc2)n1-c1ccccc1` (centres undefined) [1,2-Diphenyl-3,5-dioxo-4-(2-phenylsulfinylethyl)pyrazolidine], it took 17.3 µM to reach a half-maximal effect (EC50). With `OC(CN1CCOCC1)CN(c1ccccc1)c1ccccc1` (centres undefined) [1-(4-morpholinyl)-3-(N-phenylanilino)-2-propanol;hydrochloride] the figure was 4.13 µM; with `COc1ccc(-n2ncc3c(N4CCCc5ccccc54)ncnc32)cc1` [1-[1-(4-methoxyphenyl)-1H-pyrazolo[3,4-d]pyrimidin-4-yl]-1,2,3,4-tetrahydroquinoline], 52.6 µM. `CN1C(=S)SC(N(O)C(=O)Nc2ccccc2)C1(C)C` (centres undefined) [1-hydroxy-3-phenyl-1-(3,4,4-trimethyl-2-sulfanylidene-1,3-thiazolidin-5-yl)urea] displayed an EC50 of 31.8 µM. With `CCOC(=O)c1cnc(-n2nc(C)cc2C)nc1NC(C)c1ccccc1` (centres undefined) [2-(3,5-dimethyl-1-pyrazolyl)-4-(1-phenylethylamino)-5-pyrimidinecarboxylic acid ethyl ester] the figure was 100 µM; with `COCCNC(=O)C(c1ccncc1)N(C(=O)Cn1nnc2ccccc21)c1ccc(OC)cc1` (centres undefined) [2-(N-[2-(1-benzotriazolyl)-1-oxoethyl]-4-methoxyanilino)-N-(2-methoxyethyl)-2-pyridin-4-ylacetamide], above 100 µM; with `Cc1csc(NC(=O)CSc2nsc(SCC(=O)Nc3nc(C)cs3)c2C#N)n1` [2-[[4-cyano-3-[2-[(4-methyl-1,3-thiazol-2-yl)amino]-2-oxidanylidene-ethyl]sulfanyl-1,2-thiazol-5-yl]sulfanyl]-N-(4-methyl-1,3-thiazol-2-yl)ethanamide], 20.2 µM. With `CCCCc1c(O)n(-c2ccccc2)n(-c2ccccc2)c1=O` [3,5-Dioxo-1,2-diphenyl-4-n-butylpyrazolidine] the figure was 1.06 µM. With `COc1ccc(-c2coc3c(CN4CCCCC4)c(O)c(CN4CCCCC4)c(O)c3c2=O)cc1` [3-(4-methoxyphenyl)-5,7-bis(oxidanyl)-6,8-bis(piperidin-1-ylmethyl)chromen-4-one] the figure was 100 µM; with `CCCCC1(C(=O)OCC)CC(CN2CCOCC2)OC1=O` (centres undefined) [3-butyl-2-keto-5-(morpholinomethyl)tetrahydrofuran-3-carboxylic acid ethyl ester], 6.5 µM; with `CCOC(=O)N1CCC(NC(=O)CSCc2nc(-c3ccc(OC)c(OC)c3)oc2C)CC1` [4-[[2-[[2-(3,4-dimethoxyphenyl)-5-methyl-4-oxazolyl]methylthio]-1-oxoethyl]amino]-1-piperidinecarboxylic acid ethyl ester], 0.08 µM. Regarding `Nc1nonc1C(=O)NCCN=Cc1cc(Cc2ccccc2)cc(Br)c1O` [4-amino-N-[2-[[(E)-(3-benzyl-5-bromo-6-oxocyclohexa-2,4-dien-1-ylidene)methyl]amino]ethyl]-1,2,5-oxadiazole-3-carboxamide], the concentration for a half-maximal effect (EC50) is above 100 µM.

On to `Cc1ccc(C(=O)NCC(C)(C)O)cc1` [4-methyl-N-(2-methyl-2-oxidanyl-propyl)benzamide], for which the half-maximal effective concentration (EC50) stood at 2.34 µM. With `COc1ccc(-c2nnc(Nc3nc4c(OC)cccc4s3)o2)c(OC)c1` [5-(2,4-dimethoxyphenyl)-N-(4-methoxy-1,3-benzothiazol-2-yl)-1,3,4-oxadiazol-2-amine] the figure was 2.84 µM. The same measure for `COc1cccc2sc(Nc3nnc(-c4ccc(F)cc4)o3)nc12` [5-(4-fluorophenyl)-N-(4-methoxy-1,3-benzothiazol-2-yl)-1,3,4-oxadiazol-2-amine]: 6.08 µM. The same measure for `NC(=O)c1cc(N)ccc1N1CCCC1` [5-Amino-2-pyrrolidin-1-yl-benzamide]: above 100 µM; for `Cc1ccccc1CS(=O)(=O)Cc1ccc(C(=O)NCc2ccccn2)o1` [5-[(2-methylbenzyl)sulfonylmethyl]-N-(2-pyridylmethyl)-2-furamide]: above 100 µM; for `O=S1(=O)Nc2c(ccc3cccnc23)-c2ccccc21` [5H-quinolino[8,7-c][1,2]benzothiazine 6,6-dioxide]: 19.9 µM. Compound `Cc1cc(=O)oc2c(CN3CCC(C)CC3)c(O)c(Cl)cc12` [6-chloranyl-4-methyl-8-[(4-methylpiperidin-1-yl)methyl]-7-oxidanyl-chromen-2-one] yielded an EC50 of 4.6 µM. The compound `COc1cccc(N2CCN(c3ncnc4c3[nH]c3ccc(F)cc34)CC2C)c1` (centres undefined) [8-fluoranyl-4-[4-(3-methoxyphenyl)-3-methyl-piperazin-1-yl]-5H-pyrimido[5,4-b]indole] returned an EC50 of 8.78 µM.

In turn, `CC(N=O)C(=O)NCc1ccccn1` (centres undefined) [(2E)-2-(hydroxyimino)-N-(pyridin-2-ylmethyl)propanamide] gave a half-maximal effective concentration (EC50) of 0.09 µM. With `COc1ccc(C(=O)Oc2ccc(C(C)=O)cc2)c(OC)c1` [(4-acetylphenyl) 2,4-dimethoxybenzoate] the figure was 5.14 µM; with `COc1cccc2sc(Nc3nc(-c4ccccn4)cs3)nc12` [(4-methoxy-1,3-benzothiazol-2-yl)-[4-(2-pyridyl)thiazol-2-yl]amine], 6.78 µM; with `COc1ccc(Nc2cc(C)nc3ccccc23)cc1` [(4-methoxyphenyl)-(2-methyl-4-quinolyl)amine;hydrochloride], 4.27 µM.

In turn, `C#CCN(C)C(C)Cc1ccccc1` (centres undefined) [Deprenyl] yielded an EC50 above 100 µM. With `CCOc1ccc2[nH]c(=O)c(CN(CC3COCCO3)C(=O)C3CC3)cc2c1` (centres undefined) [MLS000031787] the figure was 45.1 µM; with `COc1ccc(-c2nnc(Nc3nc4c(OC)cccc4s3)o2)cc1` [MLS000045458], 7.92 µM. Compound `O=S(=O)(Nc1cccc2ncccc12)c1cccs1` [MLS000057468] gave a concentration giving a half-maximal response (EC50) of 11.4 µM.

On to `COc1ccc(OC)c(NC(=O)CCN2CCCC(C)C2)c1` (centres undefined) [MLS000070519], for which a half-maximal effect (EC50) was put at 14.1 µM. The same measure for `CCCOc1ccc(C(CC(=O)O)NC(=O)c2ccc3c(c2)OCO3)cc1` (centres undefined) [MLS000085916]: 11.2 µM; for `CCOC(=O)c1c(C)oc2c1c1c(c3ccccc32)OCN(Cc2ccccn2)C1` [MLS000566323]: 4.38 µM.

As to `COc1cccc2sc(Nc3nnc(-c4cccs4)o3)nc12` [MolPort-003-038-736], a half-maximal response (EC50) required 3.27 µM. The same measure for `CCOC(=O)c1sc(Nc2nc3c(OC)cccc3s2)nc1C` [SMR000027213]: 33.9 µM; for `CCOc1ccc(-n2c(O)c(C=NCCN3CCNCC3)c(=O)[nH]c2=O)cc1` [SMR000057873]: 5.13 µM.
